≈ marks a conversion by molar mass, not a printed value.
Key:
[1] = target: Stromelysin-1 (Homo sapiens) (UniProt P08254); assay: Inhibition of MMP3
[2] = target: T1, Caspase-1 (Homo sapiens) (UniProt P29466); assay: Inhibition of caspase 1
T1 sequence (whole entry): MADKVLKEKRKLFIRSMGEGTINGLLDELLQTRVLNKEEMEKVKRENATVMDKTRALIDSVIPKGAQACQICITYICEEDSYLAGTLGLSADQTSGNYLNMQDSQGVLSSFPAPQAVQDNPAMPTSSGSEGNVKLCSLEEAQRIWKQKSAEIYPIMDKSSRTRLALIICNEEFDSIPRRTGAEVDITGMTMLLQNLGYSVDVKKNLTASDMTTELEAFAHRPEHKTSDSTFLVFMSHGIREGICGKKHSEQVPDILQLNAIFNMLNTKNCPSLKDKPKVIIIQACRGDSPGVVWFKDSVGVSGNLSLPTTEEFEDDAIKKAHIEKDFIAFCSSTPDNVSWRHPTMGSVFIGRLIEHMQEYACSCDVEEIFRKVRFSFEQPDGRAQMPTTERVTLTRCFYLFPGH

Stromelysin-1 (Homo sapiens), sequence (P08254 100-477 limits assumed): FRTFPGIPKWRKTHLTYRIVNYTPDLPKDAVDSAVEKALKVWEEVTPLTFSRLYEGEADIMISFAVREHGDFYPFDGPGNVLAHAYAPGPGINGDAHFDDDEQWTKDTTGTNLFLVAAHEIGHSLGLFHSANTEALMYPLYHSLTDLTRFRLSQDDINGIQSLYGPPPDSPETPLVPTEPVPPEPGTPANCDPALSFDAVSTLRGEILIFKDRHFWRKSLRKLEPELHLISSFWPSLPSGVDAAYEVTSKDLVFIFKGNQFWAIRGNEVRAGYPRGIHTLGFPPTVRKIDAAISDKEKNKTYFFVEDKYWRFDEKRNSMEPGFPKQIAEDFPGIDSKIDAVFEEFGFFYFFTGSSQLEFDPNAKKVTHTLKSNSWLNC

SMILES | MIC50 [1] [µM] | MIC50 [2] [µM]
C=C(CCC=C(C)C)[C@H]1C[C@@H](O)[C@](C)(O)[C@@H](O)C1=O | 0.3 (≈ 0.0805 µg/mL) | 30 (≈ 8.05 µg/mL)
CC(C)=CCC/C(C)=C1\C[C@@H](O)[C@](C)(O)[C@@H](O)C1=O | 0.3 (≈ 0.0805 µg/mL) | 30 (≈ 8.05 µg/mL)
C=C(CCC=C(C)C)C1=C[C@@H](O)[C@](C)(O)[C@@H](O)C1=O | 0.3 (≈ 0.0799 µg/mL) | 30 (≈ 7.99 µg/mL)
